Assay results from the supplement of paper PMC11451515.

Legend:
Conditions in all cases: 48 h
SEM cells [1] = test: AUC of viability dose-response curve (% viability x log10 dose units); higher = less sensitive
How it was run: (§1)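 In 1536-well plates, leukemia cells adapted to each medium (500 or 1000 cells/well) were exposed for 48 h at 37°C to library compounds in DMSO across 11 threefold doses, 47 μM down to 0.79 nM. Viability was read by CellTiter-Glo One luminescence and normalised per plate to DMSO and cell-free wells. A four-parameter log-logistic fit over log10 doses was integrated by trapezoidal rule. This yielded the area under the curve, with over-full-viability curves scaled and quality-control failures dropped.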

NOMO1 [2] = test: as above
How it was run: as §1

P12-Ichikawa [3] = test: as above
How it was run: as §1

SEM cells [4] = test: cell viability relative to DMSO control; higher = less cytotoxic
How it was run: (§2)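 Viability was expressed as a per-plate percentage of DMSO wells, with cell-free wells as background. Leukemia cells (NOMO1 or SEM at 500 cells/well, P12-Ichikawa at 1000 cells/well) were adapted for at least four passages in each medium and seeded in 1536-well plates (5 μl). Library compounds in DMSO were pin-dosed over an 11-point threefold series from 47 μM to 0.79 nM, and CellTiter-Glo One luminescence was read after 48 h at 37°C.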

NOMO1 [5] = test: as above
How it was run: as §2

P12-Ichikawa [6] = test: as above
How it was run: as §2

[7] = RPMI 5 mM glucose + 10% dialyzed FBS
[8] = HPLM + 10% dialyzed FBS, 0.000781 µM
[9] = HPLM + 10% dialyzed FBS, 0.00234 µM
[10] = HPLM + 10% dialyzed FBS, 0.00702 µM
[11] = HPLM + 10% dialyzed FBS, 0.0211 µM
[12] = HPLM + 10% dialyzed FBS, 0.0632 µM
[13] = HPLM + 10% dialyzed FBS, 0.19 µM
[14] = HPLM + 10% dialyzed FBS, 0.569 µM
[15] = HPLM + 10% dialyzed FBS, 1.71 µM
[16] = HPLM + 10% dialyzed FBS, 5.12 µM
[17] = HPLM + 10% dialyzed FBS, 15.4 µM
[18] = HPLM + 10% dialyzed FBS, 46.1 µM
[19] = RPMI 5 mM glucose + 10% FBS, 0.000781 µM
[20] = RPMI 5 mM glucose + 10% FBS, 0.00234 µM
[21] = RPMI 5 mM glucose + 10% FBS, 0.00702 µM
[22] = RPMI 5 mM glucose + 10% FBS, 0.0211 µM
[23] = RPMI 5 mM glucose + 10% FBS, 0.0632 µM
[24] = RPMI 5 mM glucose + 10% FBS, 0.19 µM
[25] = RPMI 5 mM glucose + 10% FBS, 0.569 µM
[26] = RPMI 5 mM glucose + 10% FBS, 1.71 µM
[27] = RPMI 5 mM glucose + 10% FBS, 5.12 µM
[28] = RPMI 5 mM glucose + 10% FBS, 15.4 µM
[29] = RPMI 5 mM glucose + 10% FBS, 46.1 µM
[30] = RPMI 5 mM glucose + 10% dialyzed FBS, 0.000781 µM
[31] = RPMI 5 mM glucose + 10% dialyzed FBS, 0.00234 µM
[32] = RPMI 5 mM glucose + 10% dialyzed FBS, 0.00702 µM
[33] = RPMI 5 mM glucose + 10% dialyzed FBS, 0.0211 µM
[34] = RPMI 5 mM glucose + 10% dialyzed FBS, 0.0632 µM
[35] = RPMI 5 mM glucose + 10% dialyzed FBS, 0.19 µM
[36] = RPMI 5 mM glucose + 10% dialyzed FBS, 0.569 µM
[37] = RPMI 5 mM glucose + 10% dialyzed FBS, 1.71 µM
[38] = RPMI 5 mM glucose + 10% dialyzed FBS, 5.12 µM
[39] = RPMI 5 mM glucose + 10% dialyzed FBS, 15.4 µM
[40] = RPMI 5 mM glucose + 10% dialyzed FBS, 46.1 µM

In the case of `Nc1cccc([S+](=O)([O-])N2CCCN([S+](=O)([O-])c3ccc4c(c3)OCCO4)CC2)c1`, the “AUC of viability dose-response curve” value (SEM cells [1]; HPLM + 10% dialyzed FBS) is reported as 460, the “AUC of viability dose-response curve” value (SEM cells [1]; RPMI 5 mM glucose + 10% FBS) is reported as 434 and the “AUC of viability dose-response curve” value (SEM cells [1]; [7]) is reported as 437. For the same compound, the “AUC of viability dose-response curve” value (NOMO1 [2]; HPLM + 10% dialyzed FBS) was 445, the “AUC of viability dose-response curve” value (NOMO1 [2]; RPMI 5 mM glucose + 10% FBS) was 464 and the “AUC of viability dose-response curve” value (NOMO1 [2]; [7]) was 447. For the same compound, the “AUC of viability dose-response curve” value (P12-Ichikawa [3]; HPLM + 10% dialyzed FBS) was 444, the “AUC of viability dose-response curve” value (P12-Ichikawa [3]; RPMI 5 mM glucose + 10% FBS) was 464 and the “AUC of viability dose-response curve” value (P12-Ichikawa [3]; [7]) was 460.

In the case of `Nc1ccc(C(=O)Nc2cccc(-c3nc(N4CCOCC4)c4oc5ncccc5c4n3)c2)cn1`, the “AUC of viability dose-response curve” value (NOMO1 [2]; HPLM + 10% dialyzed FBS) is reported as 410, the “AUC of viability dose-response curve” value (NOMO1 [2]; RPMI 5 mM glucose + 10% FBS) is reported as 442 and the “AUC of viability dose-response curve” value (NOMO1 [2]; [7]) is reported as 403. For the same compound, the “AUC of viability dose-response curve” value (P12-Ichikawa [3]; HPLM + 10% dialyzed FBS) was 450, the “AUC of viability dose-response curve” value (P12-Ichikawa [3]; RPMI 5 mM glucose + 10% FBS) was 428 and the “AUC of viability dose-response curve” value (P12-Ichikawa [3]; [7]) was 430. It also gave a cell viability (SEM cells [4]; [8]) of 119%, a cell viability (SEM cells [4]; [9]) of 120% and a cell viability (SEM cells [4]; [10]) of 130%. The cell viability (SEM cells [4]; [11]) was 113%, the cell viability (SEM cells [4]; [12]) was 115% and the cell viability (SEM cells [4]; [13]) was 107%. For the same compound, the cell viability (SEM cells [4]; [14]) was 96.3%, the cell viability (SEM cells [4]; [15]) was 116% and the cell viability (SEM cells [4]; [16]) was 90.1%. The cell viability (SEM cells [4]; [17]) was 85.8%, the cell viability (SEM cells [4]; [18]) was 4.82% and the cell viability (SEM cells [4]; [19]) was 88%. For the same compound, the cell viability (SEM cells [4]; [20]) was 80.1%, the cell viability (SEM cells [4]; [21]) was 71.8% and the cell viability (SEM cells [4]; [22]) was 75.2%. The cell viability (SEM cells [4]; [23]) was 83.9%, the cell viability (SEM cells [4]; [24]) was 68.1% and the cell viability (SEM cells [4]; [25]) was 71.7%. It also gave a cell viability (SEM cells [4]; [26]) of 77.4%, a cell viability (SEM cells [4]; [27]) of 57.9% and a cell viability (SEM cells [4]; [28]) of 38.9%. The cell viability (SEM cells [4]; [29]) was 3.46%, the cell viability (SEM cells [4]; [30]) was 129% and the cell viability (SEM cells [4]; [31]) was 119%. It also gave a cell viability (SEM cells [4]; [32]) of 116%, a cell viability (SEM cells [4]; [33]) of 111% and a cell viability (SEM cells [4]; [34]) of 114%. It also gave a cell viability (SEM cells [4]; [35]) of 102%, a cell viability (SEM cells [4]; [36]) of 104% and a cell viability (SEM cells [4]; [37]) of 107%. It also gave a cell viability (SEM cells [4]; [38]) of 79.1%, a cell viability (SEM cells [4]; [39]) of 64% and a cell viability (SEM cells [4]; [40]) of 5.84%. The cell viability (NOMO1 [5]; [8]) was 122%, the cell viability (NOMO1 [5]; [9]) was 118% and the cell viability (NOMO1 [5]; [10]) was 135%. It also gave a cell viability (NOMO1 [5]; [11]) of 121%, a cell viability (NOMO1 [5]; [12]) of 115% and a cell viability (NOMO1 [5]; [13]) of 122%. It also gave a cell viability (NOMO1 [5]; [14]) of 128%, a cell viability (NOMO1 [5]; [15]) of 98.8% and a cell viability (NOMO1 [5]; [16]) of 67.7%. The cell viability (NOMO1 [5]; [17]) was 74.5%, the cell viability (NOMO1 [5]; [18]) was 49.3% and the cell viability (NOMO1 [5]; [19]) was 118%. The cell viability (NOMO1 [5]; [20]) was 123%, the cell viability (NOMO1 [5]; [21]) was 129% and the cell viability (NOMO1 [5]; [22]) was 104%. The cell viability (NOMO1 [5]; [23]) was 118%, the cell viability (NOMO1 [5]; [24]) was 110% and the cell viability (NOMO1 [5]; [25]) was 115%. For the same compound, the cell viability (NOMO1 [5]; [26]) was 108%, the cell viability (NOMO1 [5]; [27]) was 82.8% and the cell viability (NOMO1 [5]; [28]) was 83.4%. The cell viability (NOMO1 [5]; [29]) was 91%, the cell viability (NOMO1 [5]; [30]) was 115% and the cell viability (NOMO1 [5]; [31]) was 124%. It also gave a cell viability (NOMO1 [5]; [32]) of 107%, a cell viability (NOMO1 [5]; [33]) of 113% and a cell viability (NOMO1 [5]; [34]) of 110%. For the same compound, the cell viability (NOMO1 [5]; [35]) was 119%, the cell viability (NOMO1 [5]; [36]) was 91% and the cell viability (NOMO1 [5]; [37]) was 84.9%. For the same compound, the cell viability (NOMO1 [5]; [38]) was 65%, the cell viability (NOMO1 [5]; [39]) was 73.7% and the cell viability (NOMO1 [5]; [40]) was 61.5%. The cell viability (P12-Ichikawa [6]; [8]) was 125%, the cell viability (P12-Ichikawa [6]; [9]) was 122% and the cell viability (P12-Ichikawa [6]; [10]) was 125%. The cell viability (P12-Ichikawa [6]; [11]) was 121%, the cell viability (P12-Ichikawa [6]; [12]) was 120% and the cell viability (P12-Ichikawa [6]; [13]) was 127%. The cell viability (P12-Ichikawa [6]; [14]) was 120%, the cell viability (P12-Ichikawa [6]; [15]) was 124% and the cell viability (P12-Ichikawa [6]; [16]) was 97.3%. For the same compound, the cell viability (P12-Ichikawa [6]; [17]) was 100%, the cell viability (P12-Ichikawa [6]; [18]) was 87.8% and the cell viability (P12-Ichikawa [6]; [19]) was 118%. It also gave a cell viability (P12-Ichikawa [6]; [20]) of 119%, a cell viability (P12-Ichikawa [6]; [21]) of 115% and a cell viability (P12-Ichikawa [6]; [22]) of 114%. It also gave a cell viability (P12-Ichikawa [6]; [23]) of 124%, a cell viability (P12-Ichikawa [6]; [24]) of 112% and a cell viability (P12-Ichikawa [6]; [25]) of 103%. The cell viability (P12-Ichikawa [6]; [26]) was 101%, the cell viability (P12-Ichikawa [6]; [27]) was 81.5% and the cell viability (P12-Ichikawa [6]; [28]) was 94.7%. It also gave a cell viability (P12-Ichikawa [6]; [29]) of 77.2%.
